From patent US5260298A, “Imidazatriazoloquinazoline compounds and their use” (Novo Nordisk A/S, priority 1991, dated 1993)

Tested on: benzodiazepine receptors
Assay: in vivo displacement of 3H-flunitrazepam binding from benzodiazepine receptors in a living brain
Details: dose which reduces specific binding of 3H-flunitrazepam to benzodiazepine receptors in a living brain to 50% of the control value
Source text: The pharmaceutical properties of the compounds of the invention can be illustrated by determining their capability for displacing radioactive labelled flunitrazepam from benzodiazepine receptors.
The displacement activity of the compounds of the invention may be found by determining the ED50 value. The ED50 value represents the dose (mg/kg) of a test substance which causes the specific binding of ^3 H-flunitrazepam to benzodiazepine receptors in a living brain to be reduced to 50% of the control value.
Such an in vivo test is carried out as described in U.S. Pat. No. 4,774,245.

Compound | ED50 [mg/kg]
c1ccc2c(c1)c1ncnn1c1c(-c3nc(C4CC4)no3)ncn21 [Compound 3, 5-(3-cyclopropyl-1,2,4-oxadiazol-5-yl)-imidazo[1,5-a]-[1,2,4]triazolo[1,5-c]quinazoline] | 0.16
Clc1cccc2c1c1ncnn1c1c(-c3nc(C4CC4)no3)ncn21 [Compound 5, 12-chloro-5-(3-cyclopropyl-1,2,4-oxadiazol-5-yl)-imidazo[1,5-a][1,2,4]triazolo[1,5-c]quinazoline] | 0.30
